Results published in paper PMC11649115, “In vitro safety evaluation of dopamine D3R antagonist, R-VK4-116, as a potential medication for the treatment of opioid use disorder” (PLOS ONE, 2024).
Values joined by “and” are separate entries in the source; they are usually repeats but may differ in a detail not shown here. Equal entries are not always repeated. Where two headings read alike, the source gives them in different places.

How the values were obtained:
10 enzyme targets = experiment: Enzyme and uptake assays; assay type: biochemical; conditions: 10 μM
Description: The purpose of this study was to provide a first step in preliminary safety assessments by providing early identification of potential off-target interactions for the optimization of safety margins. This study was conducted by Eurofins Cerep (France) and Eurofins Discovery (St. Charles, MO). R-VK4-116 was tested in enzyme and uptake assay with 10 enzyme targets (Figs 4 and 5 in S1 File), and cellular and nuclear receptor functional assays with 24 receptor targets (Figs 5 and 6 in S1 File). Compound enzyme inhibition effect was calculated as a % inhibition of control enzyme activity. The cellular agonist effect was calculated as a % of the control response to a known reference agonist for each target, and the cellular antagonist effect was calculated as a % inhibition of the control reference agonist response for each target.

dog plasma proteins = experiment: Plasma protein binding, Sephadex G-25 gel filtration; assay type: in vitro ADME
Description: (§1) The gel filtration used solid-phase extraction columns containing hydrated gel filtration beads (Sephadex G-25). […] In this method, the amount of analyte accompanying the proteins (i.e., protein-bound R-VK4-116) before and after filtration was assayed for analyte concentration by LC-MS/MS.

[1] = as above; assay type: in vitro ADME; conditions: plasma; for fraction unbound at 2 h, 0.5 μM: nominal 0.5 μM; for fraction unbound at 2 h, 1 μM: nominal 1 μM
Description: as §1

rat plasma proteins = experiment: as above; assay type: in vitro ADME
Description: as §1

OATP1B1 = target: T1, OATP1B1 (Homo sapiens, UniProt Q9Y6L6); experiment: Transporter mediated assay (substrate/inhibitor), MDCK-II cells; assay type: in vitro ADME
T1 construct: expressed in transfected cells; host or cells: MDCK-II cells
T1 sequence (Q9Y6L6 1-691): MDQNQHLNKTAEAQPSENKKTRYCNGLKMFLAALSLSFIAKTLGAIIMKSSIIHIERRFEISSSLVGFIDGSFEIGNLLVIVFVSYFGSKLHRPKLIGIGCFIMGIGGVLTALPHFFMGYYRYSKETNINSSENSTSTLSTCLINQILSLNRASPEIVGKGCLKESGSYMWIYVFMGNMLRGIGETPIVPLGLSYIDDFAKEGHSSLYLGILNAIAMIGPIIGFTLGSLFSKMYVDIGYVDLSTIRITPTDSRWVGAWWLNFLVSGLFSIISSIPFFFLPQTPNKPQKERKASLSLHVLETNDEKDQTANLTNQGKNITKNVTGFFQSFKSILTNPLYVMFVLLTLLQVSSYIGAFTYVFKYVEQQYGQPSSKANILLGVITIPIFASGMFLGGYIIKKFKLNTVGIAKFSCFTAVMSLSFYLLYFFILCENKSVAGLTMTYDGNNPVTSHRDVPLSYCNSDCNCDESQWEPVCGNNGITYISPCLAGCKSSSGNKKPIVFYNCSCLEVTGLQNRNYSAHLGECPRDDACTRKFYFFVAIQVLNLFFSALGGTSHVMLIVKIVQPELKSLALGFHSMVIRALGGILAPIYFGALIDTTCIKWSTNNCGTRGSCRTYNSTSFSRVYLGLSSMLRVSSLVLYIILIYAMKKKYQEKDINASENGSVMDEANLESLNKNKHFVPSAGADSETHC
Description: The MDCK-II cells were treated to express the transporter of interest. The transport of each probe substrate was determined by radiometric detection (Fig 1 in S1 File). […] For the uptake assay, the net transporter-mediated uptake-rate (V) of the substrate by each SLC transporter was calculated as follows: Transporter–mediatedupdaterate(pmol/min/cm^2)=(Cellularaccumulationincellsexpressingthetransporter)−(Meancellularaccumulationincontrolcells)/Surfacearea×incubationtime
(§2) Fold of activity and percent inhibition were determined as follows: Foldofactivity=(Meanuptakerate)transporterexpressingcells/(Meanuptakerate)controlcells Percentinhibition=100−100×(Transport‐mediatedupdaterate)withinhibitor/(Transport‐mediatedupdaterate)vehiclecontrol

P-gp = target: T2, P-gp (Homo sapiens, UniProt P08183); experiment: as above; assay type: in vitro ADME; conditions: human
T2 construct: expressed in transfected cells; host or cells: MDCK-II cells
Description: The MDCK-II cells were treated to express the transporter of interest.
For BCRP and P-gp, the apparent permeability Papp and Efflux Ratio (ER) were calculated [16]. Net basal (B) to apical (A) flux (B → A) of the substrate transport (pmol/min/cm^2) by BCRP or P-gp was calculated by subtracting A → B flux from B → A flux.

MATE2-K = target: T3, MATE2-K (Homo sapiens, UniProt Q86VL8); experiment: as above; assay type: in vitro ADME
T3 construct: expressed in transfected cells; host or cells: MDCK-II cells
Description: The MDCK-II cells were treated to express the transporter of interest. […] For the uptake assay, the net transporter-mediated uptake-rate (V) of the substrate by each SLC transporter was calculated as follows: Transporter–mediatedupdaterate(pmol/min/cm^2)=(Cellularaccumulationincellsexpressingthetransporter)−(Meancellularaccumulationincontrolcells)/Surfacearea×incubationtime
as §2

CYP1A2 mRNA = experiment: CYP induction, mRNA, primary cultured human hepatocytes; assay type: in vitro ADME; conditions: read-out: CYP1A2 mRNA Fold Induction (fold of vehicle control)
Description: Rifampicin as a positive control and solvent (0.1% DMSO) vehicle control were also included. The acceptance criteria for CYP induction was ≥ 2-fold induction for significant CYP activity, while the acceptance criteria for CYP mRNA was ≥ 4-fold for significant CYP induction.

human hepatocytes = experiment: MTT assay, hepatocyte viability; assay type: cell-based
[2] = dog, read-out: % Bound, Mean ± SD (converted)
[3] = rat, read-out: % Bound (converted)
[4] = rat, read-out: % Bound, Mean ± SD (converted)
[5] = MDCK-MDR1, P-gp, substrate test, 1 µM

T2 sequence (P08183 whole entry): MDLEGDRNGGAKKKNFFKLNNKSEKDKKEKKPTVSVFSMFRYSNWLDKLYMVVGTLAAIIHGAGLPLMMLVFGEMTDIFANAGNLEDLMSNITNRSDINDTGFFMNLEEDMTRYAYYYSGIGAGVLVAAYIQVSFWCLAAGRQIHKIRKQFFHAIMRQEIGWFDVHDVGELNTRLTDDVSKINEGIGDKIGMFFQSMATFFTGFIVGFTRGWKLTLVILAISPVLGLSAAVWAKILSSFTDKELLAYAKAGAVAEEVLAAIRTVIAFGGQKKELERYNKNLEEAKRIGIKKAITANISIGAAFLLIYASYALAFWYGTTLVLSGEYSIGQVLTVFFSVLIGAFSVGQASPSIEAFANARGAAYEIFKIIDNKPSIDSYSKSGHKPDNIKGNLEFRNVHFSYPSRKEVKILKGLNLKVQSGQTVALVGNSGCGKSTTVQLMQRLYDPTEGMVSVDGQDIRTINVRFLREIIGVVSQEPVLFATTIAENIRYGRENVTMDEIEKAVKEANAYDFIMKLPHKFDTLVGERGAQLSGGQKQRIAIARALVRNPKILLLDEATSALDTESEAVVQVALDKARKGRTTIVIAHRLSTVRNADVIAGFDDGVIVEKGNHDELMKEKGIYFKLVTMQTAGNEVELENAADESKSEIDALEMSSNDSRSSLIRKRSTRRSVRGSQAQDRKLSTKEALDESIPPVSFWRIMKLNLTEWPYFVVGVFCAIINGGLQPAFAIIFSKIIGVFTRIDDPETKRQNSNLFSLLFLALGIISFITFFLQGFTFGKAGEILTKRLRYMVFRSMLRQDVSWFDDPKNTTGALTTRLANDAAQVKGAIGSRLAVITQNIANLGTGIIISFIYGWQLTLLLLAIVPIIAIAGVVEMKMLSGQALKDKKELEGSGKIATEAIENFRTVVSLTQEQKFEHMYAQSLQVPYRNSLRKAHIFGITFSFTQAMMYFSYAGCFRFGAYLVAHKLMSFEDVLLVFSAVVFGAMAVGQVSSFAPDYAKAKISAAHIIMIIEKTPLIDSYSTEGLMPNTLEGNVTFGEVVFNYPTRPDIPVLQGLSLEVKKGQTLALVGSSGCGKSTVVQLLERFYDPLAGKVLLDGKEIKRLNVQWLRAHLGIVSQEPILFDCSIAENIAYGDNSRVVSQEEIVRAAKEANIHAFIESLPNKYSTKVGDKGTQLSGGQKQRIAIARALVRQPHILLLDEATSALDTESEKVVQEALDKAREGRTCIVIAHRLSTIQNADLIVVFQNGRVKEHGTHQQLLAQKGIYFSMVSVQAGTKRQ
T3 sequence (Q86VL8 1-566 isoform Q86VL8-3): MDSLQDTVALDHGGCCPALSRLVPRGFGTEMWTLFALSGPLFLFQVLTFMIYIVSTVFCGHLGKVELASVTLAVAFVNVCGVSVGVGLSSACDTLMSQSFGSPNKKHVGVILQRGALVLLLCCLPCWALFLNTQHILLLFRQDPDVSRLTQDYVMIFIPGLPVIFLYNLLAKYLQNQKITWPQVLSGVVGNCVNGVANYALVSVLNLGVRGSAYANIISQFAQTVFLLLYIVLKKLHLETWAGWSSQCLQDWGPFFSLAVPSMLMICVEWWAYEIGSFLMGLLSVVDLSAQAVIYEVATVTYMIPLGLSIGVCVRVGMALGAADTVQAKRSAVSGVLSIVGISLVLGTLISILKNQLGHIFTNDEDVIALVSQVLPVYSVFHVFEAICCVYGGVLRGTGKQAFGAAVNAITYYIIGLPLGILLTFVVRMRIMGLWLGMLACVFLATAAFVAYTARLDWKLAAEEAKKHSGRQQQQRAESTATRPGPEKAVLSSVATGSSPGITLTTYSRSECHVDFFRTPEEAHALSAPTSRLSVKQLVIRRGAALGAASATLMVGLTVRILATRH

CCc1cc(Cl)c(OC)c(N2CCN(CC(O)CCNC(=O)c3cc4ccccc4[nH]3)CC2)c1 (stereo not drawn) [R-VK4-116, N-(4-(4-(3-chloro-5-ethyl-2-methoxyphenyl)piperazin-1-yl)-3-hydroxybutyl)-1H-indole-2-carboxamide]
enzyme inhibition effects or uptake (10 enzyme targets): did not show any enzyme inhibition effects or uptake | % Bound (dog plasma proteins; nominal 0.5 μM): 92.1% and 80.8% and 77.9% | Ratio [R-VK4-116] Before Filtration / Eluate (dog plasma proteins; nominal 0.5 μM): 1.25 and 1.24 | Ratio [R-VK4-116] Before Filtration / Eluate, Mean ± SD (dog plasma proteins; nominal 0.5 μM): 1.25 ± 0.01 | [R-VK4-116] Before Filtration (dog plasma proteins; nominal 0.5 μM): 0.618 µM and 0.616 µM and 0.609 µM | [R-VK4-116] In Sephadex G-25 Eluate (dog plasma proteins; nominal 0.5 μM): 0.495 µM and 0.493 µM and 0.491 µM | % Bound (dog plasma proteins; nominal 1 μM): 73.3% and 92.5% and 82.4% | Ratio [R-VK4-116] Before Filtration / Eluate (dog plasma proteins; nominal 1 μM): 1.68 and 1.51 and 1.77 | Ratio [R-VK4-116] Before Filtration / Eluate, Mean ± SD (dog plasma proteins; nominal 1 μM): 1.65 ± 0.13 | [R-VK4-116] Before Filtration (dog plasma proteins; nominal 1 μM): 1.05 µM and 1.07 µM | [R-VK4-116] In Sephadex G-25 Eluate (dog plasma proteins; nominal 1 μM): 0.626 µM and 0.707 µM and 0.604 µM | fraction unbound at 2 h, 0.5 μM [1, 2]: 0.164 | fraction unbound at 2 h, 1 μM [1, 2]: 0.173 | fraction unbound at 2 h, 0.5 μM [1, 3]: 0.164 | fraction unbound at 2 h, 0.5 μM [1, 4]: 0.168 | fraction unbound at 2 h, 1 μM [1, 3]: 0.086 | fraction unbound at 2 h, 1 μM [1, 4]: 0.072 | % Bound (rat plasma proteins; nominal 0.5 μM): 79.3% and 86.7% | Ratio [R-VK4-116] Before Filtration / Eluate (rat plasma proteins; nominal 0.5 μM): 1.18 and 1.20 | Ratio [R-VK4-116] Before Filtration / Eluate, Mean ± SD (rat plasma proteins; nominal 0.5 μM): 1.19 ± 0.01 | [R-VK4-116] Before Filtration (rat plasma proteins; nominal 0.5 μM): 0.631 µM and 0.630 µM | [R-VK4-116] In Sephadex G-25 Eluate (rat plasma proteins; nominal 0.5 μM): 0.533 µM and 0.535 µM and 0.525 µM | % Bound (rat plasma proteins; nominal 1 μM): 93.9% and 93.2% | Ratio [R-VK4-116] Before Filtration / Eluate (rat plasma proteins; nominal 1 μM): 1.63 and 1.60 and 1.58 | Ratio [R-VK4-116] Before Filtration / Eluate, Mean ± SD (rat plasma proteins; nominal 1 μM): 1.60 ± 0.02 | [R-VK4-116] Before Filtration (rat plasma proteins; nominal 1 μM): 1.03 µM and 1.01 µM and 1.02 µM | [R-VK4-116] In Sephadex G-25 Eluate (rat plasma proteins; nominal 1 μM): 0.632 µM and 0.647 µM | fold difference in mean uptake rate (substrate test) (OATP1B1; OATP1B1, 1 μM, transporter cells vs control cells): < 2 fold | Inhibition (%) (OATP1B1; OATP1B1, 0.1% BSA, 10 μM): no statistically significant inhibition | inhibition at 10 µM (OATP1B1; human, polarized monolayer of MDCK-II cells expressing OATP1B1, OATP1B1, 0.1% BSA, 10 μM): 5.5 ± 17.3% | Papp A→B at 1 µM (P-gp; [5]): < 0.2 ×10⁻⁶ cm/s | Papp B→A at 1 µM (P-gp; [5]): < 0.1 ×10⁻⁶ cm/s | inhibition at 10 µM (P-gp; probe quinidine 0.1 μM): 56.5 ± 6.17% | fold difference in mean uptake rate (substrate test) (MATE2-K; 1 μM, transporter cells vs control cells): < 2 fold | inhibition at 10 µM (MATE2-K; human, polarized monolayer of MDCK-II cells expressing MATE2-K, 0.1% BSA, 10 μM): 37.8 ± 9.26% | fold induction at 48 h, 0.01 µM (CYP1A2 mRNA; Lot 336, 0.01 μM): 1.1 | fold induction at 48 h, 0.1 µM (CYP1A2 mRNA; Lot 336, 0.1 μM): 1.2 | fold induction at 48 h, 1 µM (CYP1A2 mRNA; Lot 336, 1 μM): 1.6 | fold induction at 48 h, 3 µM (CYP1A2 mRNA; Lot 336, 3 μM): 1.9 | fold induction at 48 h, 5 µM (CYP1A2 mRNA; Lot 336, 5 μM): 1.8 | fold induction at 48 h, 10 µM (CYP1A2 mRNA; Lot 336, 10 μM): 1.9 | fold induction at 48 h, 0.01 µM (CYP1A2 mRNA; Lot 348B, 0.01 μM): 1.1 | fold induction at 48 h, 0.1 µM (CYP1A2 mRNA; Lot 348B, 0.1 μM): 1.4 | fold induction at 48 h, 1 µM (CYP1A2 mRNA; Lot 348B, 1 μM): 1.3 | fold induction at 48 h, 3 µM (CYP1A2 mRNA; Lot 348B, 3 μM): 1.5 | fold induction at 48 h, 5 µM (CYP1A2 mRNA; Lot 348B, 5 μM): 1.6 | fold induction at 48 h, 10 µM (CYP1A2 mRNA; Lot 348B, 10 μM): 1.5 | fold induction at 48 h, 0.01 µM (CYP1A2 mRNA; Lot 399, 0.01 μM): 1.6 | fold induction at 48 h, 0.1 µM (CYP1A2 mRNA; Lot 399, 0.1 μM): 1.8 | fold induction at 48 h, 1 µM (CYP1A2 mRNA; Lot 399, 1 μM): 1.7 | fold induction at 48 h, 3 µM (CYP1A2 mRNA; Lot 399, 3 μM): 1.9 | fold induction at 48 h, 5 µM (CYP1A2 mRNA; Lot 399, 5 μM): 1.6 | fold induction at 48 h, 10 µM (CYP1A2 mRNA; Lot 399, 10 μM): 1.6 | Hepatocyte Viability, MTT Assay Upfront (Mean) (human hepatocytes; 0.01 µM): 93 | Hepatocyte Viability, MTT Assay Upfront (Mean) (human hepatocytes; 0.1 µM): 105 | Hepatocyte Viability, MTT Assay Upfront (Mean) (human hepatocytes; 1 µM): 86 | Hepatocyte Viability, MTT Assay Upfront (Mean) (human hepatocytes; 3 µM): 91 | Hepatocyte Viability, MTT Assay Upfront (Mean) (human hepatocytes; 10 μM): 73 | Hepatocyte Viability, MTT Assay Upfront (Mean) (human hepatocytes; 30 µM): 73 | Hepatocyte Viability, Concurrent MTT Assay (Mean) (human hepatocytes; Lot 336, 0.01 µM): 96 | Hepatocyte Viability, Concurrent MTT Assay (Mean) (human hepatocytes; Lot 336, 0.10 µM): 90 | Hepatocyte Viability, Concurrent MTT Assay (Mean) (human hepatocytes; Lot 336, 1 µM): 91 | Hepatocyte Viability, Concurrent MTT Assay (Mean) (human hepatocytes; Lot 336, 3 µM): 80 | Hepatocyte Viability, Concurrent MTT Assay (Mean) (human hepatocytes; Lot 336, 5 µM): 75 | Hepatocyte Viability, Concurrent MTT Assay (Mean) (human hepatocytes; Lot 336, 10 µM): 73 | Hepatocyte Viability, Concurrent MTT Assay (Mean) (human hepatocytes; Lot 348B, 0.01 µM): 100 | Hepatocyte Viability, Concurrent MTT Assay (Mean) (human hepatocytes; Lot 348B, 0.10 µM): 101 | Hepatocyte Viability, Concurrent MTT Assay (Mean) (human hepatocytes; Lot 348B, 1 µM): 104 | Hepatocyte Viability, Concurrent MTT Assay (Mean) (human hepatocytes; Lot 348B, 3 µM): 96 | Hepatocyte Viability, Concurrent MTT Assay (Mean) (human hepatocytes; Lot 348B, 5 µM): 97 | Hepatocyte Viability, Concurrent MTT Assay (Mean) (human hepatocytes; Lot 348B, 10 µM): 102 | Hepatocyte Viability, Concurrent MTT Assay (Mean) (human hepatocytes; Lot 399, 0.01 µM): 107 | Hepatocyte Viability, Concurrent MTT Assay (Mean) (human hepatocytes; Lot 399, 0.10 µM): 104 | Hepatocyte Viability, Concurrent MTT Assay (Mean) (human hepatocytes; Lot 399, 1 µM): 95 | Hepatocyte Viability, Concurrent MTT Assay (Mean) (human hepatocytes; Lot 399, 3 µM): 88 | Hepatocyte Viability, Concurrent MTT Assay (Mean) (human hepatocytes; Lot 399, 5 µM): 86 | Hepatocyte Viability, Concurrent MTT Assay (Mean) (human hepatocytes; Lot 399, 10 µM): 91 | hepatocyte viability, concurrent MTT assay (human hepatocytes; ≤ 10 μM): no decrease of hepatocyte viability
